Experimental data taken from PMC9607104, “Switching the N-Capping Region from all-L to all-D Amino Acids in a VEGF Mimetic Helical Peptide” (Molecules, 2022).
Square brackets hold non-standard residues; d marks the D form. Peptide text beside a SMILES is read from it.

Assay: Peptide stability in 50% human serum (RP-HPLC time course)
Format: in vitro ADME
Conditions: 50% aqueous human serum, 37 °C, time points 0, 30 (35), 120 min, RP-HPLC peak area at 220 nm, triplicate
Protocol: D-amino acids are more resistant to protease degradation. In order to verify the effect of D-amino acid replacement on QK stability in serum, we performed a time-course analysis. Peptides were incubated with 50% diluted human serum and analyzed by RP-HPLC at three different times (0′, 35′ and 120′). The area of the chromatographic peak corresponding to the entire peptide was determined (Figure 6). Overall, peptide QK presents fairly good stability in 50% serum, as almost the 50% is still present after […] of incubation.
Figure 6 Analysis of peptide stability in 50% human serum. […] Data are reported as means of a triplicate experiment.
Briefly, 20 µL of peptide (10 mg/mL stock solution in H2O) were added to 200 µL of 50% aqueous solution of human serum (Sigma-Aldrich) (previously centrifuged at 10,000 rpm for 10 min at 4 °C) and the mixture was incubated at 37 °C. At each time point (0, 30, 120 min), an aliquot of 6 µL was diluted in a ten times volume of H2O and analyzed by RP-HPLC on an Atlantis C18-column (Waters, 5 µm, 4.6 mm × 150 mm) using a linear aqueous acetonitrile gradient containing TFA (0.1%, v/v). Initial condition 5% B, 5−5% B in 5 min, 5−40% B in 27 min, 40−100% B in 5 min, and flow rate 1 mL/min (B = acetonitrile 0.1% TFA). Peptides were detected by recording the absorbance at 220 nm and quantified by their peak areas relative to the initial peak areas (0 min). […]

SMILES: CC[C@H](C)[C@H](NC(=O)CNC(=O)[C@H](CCCCN)NC(=O)[C@H](Cc1ccc(O)cc1)NC(=O)[C@H](CCCCN)NC(=O)[C@H](CC(C)C)NC(=O)[C@H](CCC(N)=O)NC(=O)[C@H](Cc1ccc(O)cc1)NC(=O)[C@H](CC(C)C)NC(=O)[C@H](CCC(=O)O)NC(=O)[C@H](CCC(N)=O)NC(=O)[C@H](Cc1c[nH]c2ccccc12)NC(=O)[C@H](NC(=O)[C@@H](CC(C)C)NC(=O)[C@@H](CCCCN)NC(C)=O)[C@H](C)O)C(N)=O [D-QK, Ac-^DLys-^DLeu-^DThr-Trp-Gln-Glu-Leu-Tyr-Gln-Leu-Lys-Tyr-Lys-Gly-Ile-NH2] (Ac-[dK][dL][dT]WQELYQLKYKGI-NH2)
- effect of the N-terminal D-amino acids on stability in human serum (versus QK): unaffected
